Results taken from patent US20180002319A1, “MACROCYCLIC PICOLINAMIDE COMPOUNDS WITH FUNGICIDAL ACTIVITY” (DOW AGROSCIENCES LLC, priority 2014, published 2018).
Read-outs that look alike come from different tables or passages of the source.

Assays:
Zymoseptoria tritici = assay: Leaf Blotch of Wheat (SEPTTR) fungicidal activity; type: in vivo; conditions: wheat leaf blotch; for pest or weed control at 121.5 g/ha: Low Volume application, 121.5 g/H; for pest or weed control at 100 ppm: High Volume application
Experimental: Example A: Evaluation of Fungicidal Activity: Leaf Blotch of Wheat (Zymoseptoria tritici; Bayer Code […]) Technical grades of materials were dissolved in acetone, which were then mixed with nine volumes of H2O containing 110 ppm Triton X-100. The fungicide solutions were applied onto wheat seedlings using an automated booth sprayer to run-off. All sprayed plants were allowed to air dry prior to further handling. All fungicides were evaluated using the aforementioned method for their activity vs. all target diseases, unless stated otherwise. Wheat leaf blotch and brown rust activity were also evaluated using track spray applications, in which case the fungicides were formulated as EC formulations, containing 0.1% Trycol 5941 in the spray solutions. Wheat plants (variety Yuma) were grown from seed in a greenhouse in 50% mineral soil/50% soil-less Metro mix until the first leaf was fully emerged, with 7-10 seedlings per pot. These plants were inoculated with an aqueous spore suspension of Zymoseptoria tritici either prior to or after fungicide treatments. After inoculation the plants were kept in 100% relative humidity (one day in a dark dew chamber followed by two to three days in a lighted dew chamber at 20° C.) to permit spores to germinate and infect the leaf. The plants were then transferred to a greenhouse set at 20° C. for disease to develop. When disease symptoms were fully expressed on the 1st leaves of untreated plants, infection levels were assessed on a scale of 0 to 100 percent disease severity. Percent disease control was calculated using the ratio of disease severity on treated plants relative to untreated plants.

Puccinia triticina = assay: Wheat Brown Rust (PUCCRT) fungicidal activity; type: in vivo; conditions: for pest or weed control at 121.5 g/ha: Low Volume application, 121.5 g/H; for pest or weed control at 100 ppm: High Volume application
Experimental: Technical grades of materials were dissolved in acetone, which were then mixed with nine volumes of H2O containing 110 ppm Triton X-100. The fungicide solutions were applied onto wheat seedlings using an automated booth sprayer to run-off. All sprayed plants were allowed to air dry prior to further handling. All fungicides were evaluated using the aforementioned method for their activity vs. all target diseases, unless stated otherwise. Wheat leaf blotch and brown rust activity were also evaluated using track spray applications, in which case the fungicides were formulated as EC formulations, containing 0.1% Trycol 5941 in the spray solutions. Wheat plants (variety Yuma) were grown from seed in a greenhouse in 50% mineral soil/50% soil-less Metro mix until the first leaf was fully emerged, with 7-10 seedlings per pot. These plants were inoculated with an aqueous spore suspension of Zymoseptoria tritici either prior to or after fungicide treatments. After inoculation the plants were kept in 100% relative humidity (one day in a dark dew chamber followed by two to three days in a lighted dew chamber at 20° C.) to permit spores to germinate and infect the leaf. The plants were then transferred to a greenhouse set at 20° C. for disease to develop. When disease symptoms were fully expressed on the 1st leaves of untreated plants, infection levels were assessed on a scale of 0 to 100 percent disease severity. Percent disease control was calculated using the ratio of disease severity on treated plants relative to untreated plants. Example B: Evaluation of Fungicidal Activity: Wheat Brown Rust (Puccinia triticina; Bayer Code PUCCRT) Wheat plants (variety Yuma) were grown from seed in a greenhouse in 50% mineral soil/50% soil-less Metro mix until the first leaf was fully emerged, with 7-10 seedlings per pot. These plants were inoculated with an aqueous spore suspension of Puccinia triticina either prior to or after fungicide treatments. After inoculation the plants were kept in a dark dew room at 22° C. with 100% relative humidity overnight to permit spores to germinate and infect the leaf. The plants were then transferred to a greenhouse set at 24° C. for disease to develop. Fungicide formulation, application and disease assessment followed the procedures as described in the Example A.

[1] = 24 h, 1 day protectant, read-out: SEPTTR disease control, 1DP (1 Day Protectant)
[2] = 24 h, 1 day protectant, read-out: PUCCRT disease control, 1DP (1 Day Protectant)
[3] = 72 h, 3 day curative, read-out: PUCCRT disease control, 3DC (3 Day Curative)
[4] = 72 h, 3 day curative, read-out: SEPTTR disease control, 3DC (3 Day Curative)

| Compound | pest or weed control at 121.5 g/ha (Zymoseptoria tritici; [1]) [%] | pest or weed control at 121.5 g/ha (Puccinia triticina; [2]) [%] | pest or weed control at 121.5 g/ha (Puccinia triticina; [3]) [%] | pest or weed control at 121.5 g/ha (Zymoseptoria tritici; [4]) [%] | pest or weed control at 100 ppm (Zymoseptoria tritici; [1]) [%] | pest or weed control at 100 ppm (Puccinia triticina; [2]) [%] | pest or weed control at 100 ppm (Puccinia triticina; [3]) [%] | pest or weed control at 100 ppm (Zymoseptoria tritici; [4]) [%] |
| --- | --- | --- | --- | --- | --- | --- | --- | --- |
| COc1ccnc(C(=O)N[C@H]2CCCC[C@H](CC3CCCC3)[C@@H](OC)[C@H](C)OC2=O)c1OC(C)=O [Compound 59] | < 80 | > 80 | > 80 | – | – | – | – | – |
| COc1ccnc(C(=O)N[C@H]2CCCC[C@H](Cc3ccccc3)[C@@H](OC(=O)C(C)C)[C@H](C)OC2=O)c1OCOC(C)=O [Compound 60] | > 80 | > 80 | > 80 | > 80 | – | – | – | – |
| COc1ccnc(C(=O)N[C@H]2CCCC[C@H](CC3CCCC3)[C@@H](OC)[C@H](C)OC2=O)c1OCOC(C)=O [Compound 61] | < 80 | > 80 | > 80 | < 80 | – | – | – | – |
| COc1ccnc(C(=O)N[C@H]2CCCC[C@H](Cc3ccccc3)[C@@H](Oc3ccccc3)[C@H](C)OC2=O)c1OCOC(C)=O [Compound 62] | > 80 | > 80 | < 80 | > 80 | – | – | – | – |
| COc1ccnc(C(=O)N[C@H]2CCCC[C@H](Cc3ccccc3)[C@@H](Oc3ccccc3)[C@H](C)OC2=O)c1OC(C)=O [Compound 64] | > 80 | > 80 | < 80 | > 80 | – | – | – | – |
| COc1ccc(C[C@H]2CCOC[C@H](NC(=O)c3nccc(OC)c3OC(C)=O)C(=O)O[C@@H](C)[C@@H]2Oc2ccccc2)cc1 [Compound 65] | > 80 | > 80 | < 80 | < 80 | – | – | – | – |
| COc1ccc(C[C@H]2CCOC[C@H](NC(=O)c3nccc(OC)c3OCOC(C)=O)C(=O)O[C@@H](C)[C@@H]2Oc2ccccc2)cc1 [Compound 66] | > 80 | > 80 | < 80 | > 80 | – | – | – | – |
| COc1ccc(C[C@H]2CCOC[C@H](NC(=O)c3nccc(OC)c3OCOC(=O)C(C)C)C(=O)O[C@@H](C)[C@@H]2Oc2ccccc2)cc1 [Compound 67, ((4-methoxy-2-(((3S,8S,9R,10S)-8-(4-methoxybenzyl)-10-methyl-2-oxo-9-phenoxy-1,5-dioxecan-3-yl)carbamoyl)pyridin-3-yl)oxy)methyl isobutyrate] | > 80 | > 80 | < 80 | < 80 | – | – | – | – |
| COc1ccc(C[C@H]2CCOC[C@H](NC(=O)c3nccc(OC)c3OC(=O)C(C)C)C(=O)O[C@@H](C)[C@@H]2Oc2ccccc2)cc1 [Compound 68] | < 80 | > 80 | – | < 80 | – | – | – | – |
| CC[C@H]1CCOC[C@H](NC(=O)c2nccc(OC)c2OCOC(C)=O)C(=O)O[C@@H](C)[C@@H]1Oc1ccccc1 [Compound 69] | > 80 | > 80 | > 80 | > 80 | – | – | – | – |
| CC[C@H]1CCOC[C@H](NC(=O)c2nccc(OC)c2OCOC(C)=O)C(=O)O[C@@H](C)[C@@H]1OCC(C)C [Compound 70] | > 80 | > 80 | > 80 | < 80 | – | – | – | – |
| COc1ccnc(C(=O)N[C@H]2COCC[C@H](Cc3ccc(F)cc3)[C@@H](Oc3ccccc3)[C@H](C)OC2=O)c1OC(C)=O [Compound 71] | > 80 | > 80 | > 80 | > 80 | – | – | – | – |
| COc1ccnc(C(=O)N[C@H]2COCC[C@H](Cc3ccc(F)cc3)[C@@H](Oc3ccccc3)[C@H](C)OC2=O)c1OCOC(C)=O [Compound 72] | > 80 | > 80 | > 80 | > 80 | – | – | – | – |
| COc1ccnc(C(=O)N[C@H]2COCC[C@H](Cc3ccc(F)cc3)[C@@H](Oc3ccccc3)[C@H](C)OC2=O)c1OCOC(=O)C(C)C [Compound 73] | > 80 | > 80 | > 80 | > 80 | – | – | – | – |
| COc1ccnc(C(=O)N[C@H]2COCC[C@H](Cc3ccc(F)cc3)[C@@H](OCC3CC3)[C@H](C)OC2=O)c1OCOC(C)=O [Compound 74] | > 80 | > 80 | > 80 | < 80 | – | – | – | – |
| COc1ccnc(C(=O)N[C@H]2COCC[C@H](Cc3ccc(F)cc3)[C@@H](OC(=O)C(C)C)[C@H](C)OC2=O)c1OC(C)=O [Compound 75] | > 80 | > 80 | > 80 | < 80 | – | – | – | – |
| COc1ccnc(C(=O)N[C@H]2COCC[C@H](Cc3ccc(F)cc3)[C@@H](OC(=O)C(C)C)[C@H](C)OC2=O)c1OCOC(C)=O [Compound 76] | > 80 | > 80 | > 80 | > 80 | – | – | – | – |
| COc1ccnc(C(=O)N[C@H]2COCC[C@H](Cc3ccc(F)cc3)[C@@H](OCC3CC3)[C@H](C)OC2=O)c1OC(C)=O [Compound 77] | > 80 | > 80 | > 80 | < 80 | – | – | – | – |
| CCOCC(=O)OCOc1c(OC)ccnc1C(=O)N[C@H]1COCC[C@H](Cc2ccc(F)cc2)[C@@H](OCC2CC2)[C@H](C)OC1=O [Compound 78] | > 80 | > 80 | > 80 | < 80 | – | – | – | – |
| CC[C@H]1CCOC[C@H](NC(=O)c2nccc(OC)c2OCOC(C)=O)C(=O)O[C@@H](C)[C@@H]1OC(=O)C1CC1 [Compound 79] | > 80 | > 80 | > 80 | – | – | – | – | – |
| CC[C@H]1CCOC[C@H](NC(=O)c2nccc(OC)c2OC(C)=O)C(=O)O[C@@H](C)[C@@H]1OC(=O)c1ccccc1 [Compound 80] | > 80 | > 80 | > 80 | < 80 | – | – | – | – |
| COc1ccnc(C(=O)N[C@H]2COCC[C@H](OCc3ccccc3)[C@@H](OCc3ccccc3)[C@H](C)OC2=O)c1O [Compound 81] | – | – | – | – | > 80 | > 80 | > 80 | – |
| CCCCO[C@H]1CCOC[C@H](NC(=O)c2nccc(OC)c2O)C(=O)O[C@@H](C)[C@@H]1OCc1ccccc1 [Compound 82] | – | – | – | – | < 80 | > 80 | > 80 | > 80 |
| CCCCO[C@H]1CCOC[C@H](NC(=O)c2nccc(OC)c2O)C(=O)O[C@@H](C)[C@@H]1OC(=O)C(C)C [Compound 83] | – | – | – | – | < 80 | > 80 | > 80 | > 80 |
